Measured values published in ChEMBL document CHEMBL3272011, “Aminobenzoic acid diuretics. 9. 3,4-Disubstituted 5-acylaminobenzoic acids and related compounds” (1977).

Experiments:
Canis familiaris [1] = test: Diuretic effect in mongrel dog assessed as urinary excretion of water at 0.1 mg/kg, iv after 3 hrs (reference value: 0.93 +/- 0.35 ml/kg); assay type: functional, Canis lupus familiaris, Urine
Canis familiaris [2] = test: Diuretic effect in mongrel dog assessed as urinary excretion of Cl- at 0.01 mg/kg, po after 3 hrs (reference value: 0.08 +/- 0.02 mequiv/kg); assay type: functional, Canis lupus familiaris, Urine
Canis familiaris [3] = test: Diuretic effect in mongrel dog assessed as urinary excretion of water at 0.01 mg/kg, iv after 3 hrs (reference value: 0.93 +/- 0.35 ml/kg)
Canis familiaris [4] = test: Diuretic effect in mongrel dog assessed as urinary excretion of Na+ at 0.1 mg/kg, iv after 3 hrs (reference value: 0.10 +/- 0.02 mequiv/kg); assay type: functional, Canis lupus familiaris, Urine
Canis familiaris [5] = test: Diuretic effect in mongrel dog assessed as urinary excretion of Cl- at 0.25 mg/kg, iv after 3 hrs (reference value: 0.08 +/- 0.02 mequiv/kg); assay type: functional, Canis lupus familiaris, Urine
Canis familiaris [6] = test: Diuretic effect in mongrel dog assessed as urinary excretion of Na+ at 0.25 mg/kg, iv after 3 hrs (reference value: 0.10 +/- 0.02 mequiv/kg); assay type: functional, Canis lupus familiaris, Urine
Canis familiaris [7] = test: Diuretic effect in mongrel dog assessed as urinary excretion of water at 0.25 mg/kg, iv after 3 hrs (reference value: 0.93 +/- 0.35 ml/kg); assay type: functional, Canis lupus familiaris, Urine
Canis familiaris [8] = test: Diuretic effect in mongrel dog assessed as urinary excretion of K+ at 0.01 mg/kg, po after 3 hrs (reference value: 0.16 +/- 0.01 mequiv/kg); assay type: functional, Canis lupus familiaris, Urine
Canis familiaris [9] = test: Diuretic effect in mongrel dog assessed as urinary excretion of Cl- at 0.1 mg/kg, iv after 3 hrs (reference value: 0.08 +/- 0.02 mequiv/kg); assay type: functional, Canis lupus familiaris, Urine
Canis familiaris [10] = test: Diuretic effect in mongrel dog assessed as urinary excretion of Na+ at 0.01 mg/kg, po after 3 hrs (reference value: 0.10 +/- 0.02 mequiv/kg); assay type: functional, Canis lupus familiaris, Urine
Canis familiaris [11] = test: Diuretic effect in mongrel dog assessed as urinary excretion of K+ at 0.1 mg/kg, iv after 3 hrs (reference value: 0.16 +/- 0.01 mequiv/kg); assay type: functional, Canis lupus familiaris, Urine
Canis familiaris [12] = test: Diuretic effect in mongrel dog assessed as urinary excretion of K+ at 0.25 mg/kg, iv after 3 hrs (reference value: 0.16 +/- 0.01 mequiv/kg); assay type: functional, Canis lupus familiaris, Urine
Canis familiaris [13] = test: Diuretic effect in mongrel dog assessed as urinary excretion of K+ at 0.25 mg/kg, po after 3 hrs (reference value: 0.16 +/- 0.01 mequiv/kg); assay type: functional, Canis lupus familiaris, Urine
Canis familiaris [14] = test: Diuretic effect in mongrel dog assessed as urinary excretion of water at 0.25 mg/kg, po after 3 hrs (reference value: 0.93 +/- 0.35 ml/kg); assay type: functional, Canis lupus familiaris, Urine
Canis familiaris [15] = test: Diuretic effect in mongrel dog assessed as urinary excretion of Na+ at 0.25 mg/kg, po after 3 hrs (reference value: 0.10 +/- 0.02 mequiv/kg); assay type: functional, Canis lupus familiaris, Urine
Canis familiaris [16] = test: Diuretic effect in mongrel dog assessed as urinary excretion of water at 1 mg/kg, iv after 3 hrs (reference value: 0.93 +/- 0.35 ml/kg); assay type: functional, Canis lupus familiaris, Urine
Canis familiaris [17] = test: Diuretic effect in mongrel dog assessed as urinary excretion of Na+ at 1 mg/kg, iv after 3 hrs (reference value: 0.10 +/- 0.02 mequiv/kg); assay type: functional, Canis lupus familiaris, Urine
Canis familiaris [18] = test: Diuretic effect in mongrel dog assessed as urinary excretion of Cl- at 0.25 mg/kg, po after 3 hrs (reference value: 0.08 +/- 0.02 mequiv/kg); assay type: functional, Canis lupus familiaris, Urine
Canis familiaris [19] = test: Diuretic effect in mongrel dog assessed as urinary excretion of Cl- at 1 mg/kg, po after 3 hrs (reference value: 0.08 +/- 0.02 mequiv/kg)
Canis familiaris [20] = test: Diuretic effect in mongrel dog assessed as urinary excretion of K+ at 1 mg/kg, iv after 3 hrs (reference value: 0.16 +/- 0.01 mequiv/kg); assay type: functional, Canis lupus familiaris, Urine
Canis familiaris [21] = test: Diuretic effect in mongrel dog assessed as urinary excretion of K+ at 1 mg/kg, po after 3 hrs (reference value: 0.16 +/- 0.01 mequiv/kg); assay type: functional, Canis lupus familiaris, Urine
Canis familiaris [22] = test: Diuretic effect in mongrel dog assessed as urinary excretion of Cl- at 5 mg/kg, po after 3 hrs (reference value: 0.08 +/- 0.02 mequiv/kg); assay type: functional, Canis lupus familiaris, Urine
Canis familiaris [23] = test: Diuretic effect in mongrel dog assessed as urinary excretion of water at 0.25 mg/kg, po after 6 hrs (reference value: 1.73 +/- 0.46 ml/kg); assay type: functional, Canis lupus familiaris, Urine
Canis familiaris [24] = test: Diuretic effect in mongrel dog assessed as urinary excretion of Cl- at 0.25 mg/kg, iv after 3 hrs (reference value: 0.08 +/- 0.02 mequiv/kg)
Canis familiaris [25] = test: Diuretic effect in mongrel dog assessed as urinary excretion of Cl- at 5 mg/kg, iv after 3 hrs (reference value: 0.08 +/- 0.02 mequiv/kg); assay type: functional, Canis lupus familiaris, Urine
Canis familiaris [26] = test: Diuretic effect in mongrel dog assessed as urinary excretion of water at 1 mg/kg, po after 6 hrs (reference value: 1.73 +/- 0.46 ml/kg); assay type: functional, Canis lupus familiaris, Urine
Canis familiaris [27] = test: Diuretic effect in mongrel dog assessed as urinary excretion of K+ at 0.25 mg/kg, po after 6 hrs (reference value: 0.24 +/- 0.03 mequiv/kg); assay type: functional, Canis lupus familiaris, Urine
Canis familiaris [28] = test: Diuretic effect in mongrel dog assessed as urinary excretion of Cl- at 1 mg/kg, iv after 3 hrs (reference value: 0.08 +/- 0.02 mequiv/kg); assay type: functional, Canis lupus familiaris, Urine
Canis familiaris [29] = test: Diuretic effect in mongrel dog assessed as urinary excretion of Cl- at 1 mg/kg, po after 3 hrs (reference value: 0.08 +/- 0.02 mequiv/kg); assay type: functional, Canis lupus familiaris, Urine
Canis familiaris [30] = test: Diuretic effect in mongrel dog assessed as urinary excretion of Cl- at 1 mg/kg, po after 6 hrs (reference value: 0.17 +/- 0.09 mequiv/kg); assay type: functional, Canis lupus familiaris, Urine
Canis familiaris [31] = test: Diuretic effect in mongrel dog assessed as urinary excretion of K+ at 5 mg/kg, po after 3 hrs (reference value: 0.16 +/- 0.01 mequiv/kg); assay type: functional, Canis lupus familiaris, Urine
Canis familiaris [32] = test: Diuretic effect in mongrel dog assessed as urinary excretion of Na+ at 1 mg/kg, po after 6 hrs (reference value: 0.27 +/- 0.09 mequiv/kg); assay type: functional, Canis lupus familiaris, Urine
Canis familiaris [33] = test: Diuretic effect in mongrel dog assessed as urinary excretion of K+ at 5 mg/kg, iv after 3 hrs (reference value: 0.16 +/- 0.01 mequiv/kg); assay type: functional, Canis lupus familiaris, Urine
Canis familiaris [34] = test: Diuretic effect in mongrel dog assessed as urinary excretion of Na+ at 5 mg/kg, iv after 3 hrs (reference value: 0.10 +/- 0.02 mequiv/kg); assay type: functional, Canis lupus familiaris, Urine
Canis familiaris [35] = test: Diuretic effect in mongrel dog assessed as urinary excretion of water at 5 mg/kg, iv after 3 hrs (reference value: 0.93 +/- 0.35 ml/kg); assay type: functional, Canis lupus familiaris, Urine
Canis familiaris [36] = test: Diuretic effect in mongrel dog assessed as urinary excretion of Na+ at 5 mg/kg, po after 3 hrs (reference value: 0.10 +/- 0.02 mequiv/kg); assay type: functional, Canis lupus familiaris, Urine
Canis familiaris [37] = test: Diuretic effect in mongrel dog assessed as urinary excretion of Na+ at 0.25 mg/kg, po after 6 hrs (reference value: 0.27 +/- 0.09 mequiv/kg); assay type: functional, Canis lupus familiaris, Urine
Canis familiaris [38] = test: Diuretic effect in mongrel dog assessed as urinary excretion of K+ at 1 mg/kg, po after 6 hrs (reference value: 0.24 +/- 0.03 mequiv/kg); assay type: functional, Canis lupus familiaris, Urine
Canis familiaris [39] = test: Diuretic effect in mongrel dog assessed as urinary excretion of Na+ at 1 mg/kg, po after 3 hrs (reference value: 0.10 +/- 0.02 mequiv/kg); assay type: functional, Canis lupus familiaris, Urine
Canis familiaris [40] = test: Diuretic effect in mongrel dog assessed as urinary excretion of water at 1 mg/kg, po after 3 hrs (reference value: 0.93 +/- 0.35 ml/kg); assay type: functional, Canis lupus familiaris, Urine
Canis familiaris [41] = test: Diuretic effect in mongrel dog assessed as urinary excretion of water at 5 mg/kg, po after 3 hrs (reference value: 0.93 +/- 0.35 ml/kg); assay type: functional, Canis lupus familiaris, Urine

CCCCNc1cc(C(=O)O)cc(S(N)(=O)=O)c1Oc1ccccc1 [BUMETANIDE]
Activity (Canis familiaris [1]): 26 mL/kg
Activity (Canis familiaris [2]): 1.4 milliequivalent/kg
Activity (Canis familiaris [3]): 10 mL/kg
Activity (Canis familiaris [4]): 2.4 milliequivalent/kg
Activity (Canis familiaris [5]): 5.7 milliequivalent/kg
Activity (Canis familiaris [6]): 4 milliequivalent/kg
Activity (Canis familiaris [7]): 39 mL/kg
Activity (Canis familiaris [8]): 0.27 milliequivalent/kg
Activity (Canis familiaris [9]): 3.5 milliequivalent/kg
Activity (Canis familiaris [10]): 0.92 milliequivalent/kg
Activity (Canis familiaris [11]): 0.44 milliequivalent/kg
Activity (Canis familiaris [12]): 0.84 milliequivalent/kg

CCCCSc1cc(C(=O)O)cc(NC=O)c1C(=O)c1ccccc1
Activity (Canis familiaris [13]): 0.28 milliequivalent/kg
Activity (Canis familiaris [14]): 17 mL/kg
Activity (Canis familiaris [15]): 0.5 milliequivalent/kg
Activity (Canis familiaris [16]): 21 mL/kg
Activity (Canis familiaris [17]): 2.3 milliequivalent/kg
Activity (Canis familiaris [18]): 0.6 milliequivalent/kg
Activity (Canis familiaris [19]): 2.1 milliequivalent/kg
Activity (Canis familiaris [20]): 0.65 milliequivalent/kg

O=CNc1cc(C(=O)O)cc(OCc2ccccc2)c1C(=O)c1ccccc1
Activity (Canis familiaris [21]): 0.51 milliequivalent/kg
Activity (Canis familiaris [1]): 9 mL/kg
Activity (Canis familiaris [4]): 1 milliequivalent/kg
Activity (Canis familiaris [22]): 4.5 milliequivalent/kg
Activity (Canis familiaris [23]): 18 mL/kg
Activity (Canis familiaris [24]): 2.6 milliequivalent/kg
Activity (Canis familiaris [25]): 4.5 milliequivalent/kg
Activity (Canis familiaris [26]): 22 mL/kg
Activity (Canis familiaris [27]): 0.41 milliequivalent/kg
Activity (Canis familiaris [28]): 3.1 milliequivalent/kg
Activity (Canis familiaris [29]): 3.3 milliequivalent/kg
Activity (Canis familiaris [30]): 3.3 milliequivalent/kg
Activity (Canis familiaris [31]): 1.09 milliequivalent/kg
Activity (Canis familiaris [32]): 2.5 milliequivalent/kg
Activity (Canis familiaris [16]): 9 mL/kg
Activity (Canis familiaris [33]): 0.63 milliequivalent/kg
Activity (Canis familiaris [34]): 2.2 milliequivalent/kg
Activity (Canis familiaris [9]): 1.3 milliequivalent/kg
Activity (Canis familiaris [35]): 21 mL/kg
Activity (Canis familiaris [11]): 0.24 milliequivalent/kg
Activity (Canis familiaris [36]): 3.1 milliequivalent/kg
Activity (Canis familiaris [17]): 1.1 milliequivalent/kg
Activity (Canis familiaris [37]): 2.1 milliequivalent/kg
Activity (Canis familiaris [38]): 0.49 milliequivalent/kg
Activity (Canis familiaris [39]): 2.5 milliequivalent/kg
Activity (Canis familiaris [40]): 21 mL/kg
Activity (Canis familiaris [41]): 33 mL/kg
Activity (Canis familiaris [20]): 0.49 milliequivalent/kg

O=CNc1cc(C(=O)O)cc(SCc2ccccc2)c1C(=O)c1ccccc1
Activity (Canis familiaris [13]): 0.1 milliequivalent/kg
Activity (Canis familiaris [14]): 10 mL/kg
Activity (Canis familiaris [15]): 0.5 milliequivalent/kg
Activity (Canis familiaris [16]): 26 mL/kg
Activity (Canis familiaris [17]): 2.8 milliequivalent/kg
Activity (Canis familiaris [18]): 0.7 milliequivalent/kg
Activity (Canis familiaris [19]): 3.5 milliequivalent/kg
Activity (Canis familiaris [20]): 0.27 milliequivalent/kg

NS(=O)(=O)c1cc(C(=O)O)cc(OCc2ccccc2)c1C(=O)c1ccccc1
Activity (Canis familiaris [13]): 0.89 milliequivalent/kg
Activity (Canis familiaris [1]): 12 mL/kg
Activity (Canis familiaris [4]): 1 milliequivalent/kg
Activity (Canis familiaris [14]): 33 mL/kg
Activity (Canis familiaris [15]): 3.6 milliequivalent/kg
Activity (Canis familiaris [9]): 2 milliequivalent/kg
Activity (Canis familiaris [11]): 0.42 milliequivalent/kg
Activity (Canis familiaris [18]): 4.4 milliequivalent/kg
